Reference: US20240408159A1, “PHYTOENE-CONTAINING OLEORESIN AND COMPOSITION” (LYCORED LTD., priority 2021, published 2024)

Tests used:
IL-1a = experiment: DPM-induced IL-1a production in EpiDerm 3D reconstructed skin model; assay type: cell-based, human; details: 48 hours, FIG. 6
Experimental: The EpiDerm reconstructed skin system was obtained from the supplier MatTek (catalogue number EPI-200), and the tissue was handled according to the manufacturer's instructions. Briefly, upon delivery, the tissue was removed from its agar medium, washed and then left to recover overnight at 37 C, in a 5% CO2 environment. Then, the tissue was treated with topically-applied DPM (100 μg/ml in PBS, 10 μl/sample) in the presence or absence of the phytoene oleoresin diluted in jojoba wax at concentrations of 0.1, 1 and 2.5%, to a final volume of 30 μl. The following control groups were also set up: naïve tissue (untreated control), vehicle (jojoba wax), DPM-stimulated tissue and N-acetyl cysteine (NAC; positive control). Following addition of the test substances and controls, the reconstructed skin cultures were incubated for a further 48 hours at 37 C, in a 5% CO2 environment. At the end of the treatment period, the medium was collected from the tissue control implants and centrifuged at 250×g for 5 minutes, in order to remove particulate matter. […] IL-1a and IL-6 levels in the thawed medium were determined using commercial ELISA kits (ELISA Max Deluxe Set Human IL-1a catalogue number B265424; ELISA Max Deluxe Set Human IL-6 catalogue number B2852558; both supplied by Enco), according to the manufacturer's instructions.

IL-8 = experiment: Inhibition of UVB-induced IL-8 production in cultured HaCaT keratinocytes; assay type: cell-based, human; details: UVB lamp, test at final phytoene concentration 56 ppm, FIG. 5
Experimental: Spontaneously transformed adult human keratinocytes of the HaCaT line were grown, maintained, plated and treated with control and test substances as described in Example 1, above. The cultured cells were irradiated using a UVB lamp in order to generate an inflammatory response in the cultured cells. The control substances used in this study were: • Vehicle control (“Control” in FIG. 5) • UVB exposure only (“Untreated”) • 4-Aminobenzoic acid (“PABA”; positive control) The test substance used was a dilution of the composition of the present invention (i.e., containing non-GMO, solvent free phytoene and jojoba oil), yielding a final phytoene concentration of 56 ppm. The IL-8 concentration of the culture cell supernatants was measured as described in Example 1, above.

CC(=O)N[C@@H](CS)C(=O)O [NAC, N-acetyl cysteine]
reduction in IL-1a production (positive control) (IL-1a): reduction

Nc1ccc(C(=O)O)cc1 [PABA, 4-Aminobenzoic acid]
reduction in UVB-stimulated IL-8 production (IL-8): inhibition
